Here are results for 29 compounds from ChEMBL document CHEMBL1127854, “Bromobenzofuran-based non-peptide antagonists of angiotensin II: GR138950, a potent antihypertensive agent with high oral bioavailability” (J Med Chem, 1994).

In one data set the target is T1, Angiotensin II receptor (Rattus norvegicus, UniProt P29089+P25095+P35351).
T1 sequence (P29089 whole entry): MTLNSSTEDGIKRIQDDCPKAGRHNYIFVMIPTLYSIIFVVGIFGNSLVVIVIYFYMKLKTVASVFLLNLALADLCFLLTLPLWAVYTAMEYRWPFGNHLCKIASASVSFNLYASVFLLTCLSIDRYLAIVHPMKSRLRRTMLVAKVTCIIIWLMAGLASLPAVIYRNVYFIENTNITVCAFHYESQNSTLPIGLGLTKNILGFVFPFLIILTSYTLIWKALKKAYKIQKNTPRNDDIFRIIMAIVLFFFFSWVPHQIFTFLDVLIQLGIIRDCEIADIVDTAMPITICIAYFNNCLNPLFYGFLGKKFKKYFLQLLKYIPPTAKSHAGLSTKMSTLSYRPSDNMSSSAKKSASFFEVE
T1 sequence (P25095 whole entry): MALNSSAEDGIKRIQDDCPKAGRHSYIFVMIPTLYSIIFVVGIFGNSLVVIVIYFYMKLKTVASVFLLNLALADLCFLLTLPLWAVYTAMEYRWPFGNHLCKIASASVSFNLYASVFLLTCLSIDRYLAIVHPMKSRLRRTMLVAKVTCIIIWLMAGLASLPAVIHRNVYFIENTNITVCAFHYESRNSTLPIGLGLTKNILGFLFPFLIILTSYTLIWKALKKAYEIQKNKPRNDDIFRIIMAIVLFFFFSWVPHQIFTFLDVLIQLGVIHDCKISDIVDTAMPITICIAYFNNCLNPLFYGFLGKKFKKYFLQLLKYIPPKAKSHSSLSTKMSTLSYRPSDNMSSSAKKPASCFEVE
T1 sequence (P35351 whole entry): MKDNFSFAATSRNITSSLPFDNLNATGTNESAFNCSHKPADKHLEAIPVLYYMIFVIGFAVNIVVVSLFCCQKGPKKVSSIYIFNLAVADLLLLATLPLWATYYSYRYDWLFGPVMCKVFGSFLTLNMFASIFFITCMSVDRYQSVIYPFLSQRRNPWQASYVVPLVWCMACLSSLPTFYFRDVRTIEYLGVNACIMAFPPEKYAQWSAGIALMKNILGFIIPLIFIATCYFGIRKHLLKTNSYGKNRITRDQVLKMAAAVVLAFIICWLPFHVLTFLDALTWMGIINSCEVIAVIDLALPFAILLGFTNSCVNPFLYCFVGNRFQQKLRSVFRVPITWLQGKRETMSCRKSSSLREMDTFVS
Nature of the data set: Tested for in vitro binding affinity against angiotensin II receptor of rat liver.

Data set [1] concerns Rattus norvegicus. Nature of the data set: […] antihypertensive activity in renal hypertensive rat at 0.5 mg/kg after 7 hr of oral administration. In kind it is functional.
For data set [2], the system named is Rattus norvegicus. Nature of the data set: […] antihypertensive activity in renal hypertensive rat at 0.5 mg/kg after 24 hr of oral administration. Type of data set: functional.
Data set [3] relates to Rattus norvegicus. Nature of the data set: […] antihypertensive activity in renal hypertensive rat at 0.5 mg/kg after 5 hr of oral administration. In kind it is functional.
Data set [4] in a line: The compound was tested for plasma clearance in dog at dose of 3-10 mgkg. In kind it is ADME, organism-based, Canis lupus familiaris.
Data set [5] in a line: Half-life in plasma of dog at dose of […]-[…] mgkg. Type of data set: ADME, organism-based, Canis lupus familiaris.
A short description of data set [6]: Bioavailability in dog (dose 3-10 mg/kg). Type of data set: ADME, organism-based, Canis lupus familiaris. The settings on record: in vivo.
Data set [7] is described as follows: The compound was tested for volume of distribution in dog at dose of 3-10 mgkg. In kind it is ADME, organism-based, Canis lupus familiaris. As to conditions: in vivo.
The subject of data set [8] is Rattus norvegicus. Nature of the data set: Tested for […] antihypertensive activity in renal hypertensive rat at 1 mg/kg after 7 hr of oral administration. Type of data set: functional.
Data set [9] deals with Rattus norvegicus. Nature of the data set: Tested for […] antihypertensive activity in renal hypertensive rat at 1 mg/kg after 5 hr of oral administration. Type of data set: functional.
The test system of data set [10] is Rattus norvegicus. Nature of the data set: Tested for […] antihypertensive activity in renal hypertensive rat at 1 mg/kg after 24 hr of oral administration. In kind it is functional.

Take `CCc1nc(C(C)C)c(C(N)=O)n1Cc1ccc2oc(-c3ccccc3NS(=O)(=O)C(F)(F)F)c(Br)c2c1`: the “Log Ki” value on Angiotensin II receptor was -8.4. Moreover, the Activity in the data set with Rattus norvegicus [1] is -22; with Rattus norvegicus [2], -13; with Rattus norvegicus [3], -21.
On to `CCNC(=O)c1c(C2CC2)nc(CC)n1Cc1ccc2oc(-c3ccccc3NS(=O)(=O)C(F)(F)F)c(Br)c2c1`, for which the “Log Ki” value on Angiotensin II receptor is recorded as -9.2. Also, the Activity in the data set with Rattus norvegicus [1] is reported as -63; in the data set on Rattus norvegicus [2] it was -14; in the data set on Rattus norvegicus [3], -53.
Consider `CNC(=O)c1c(C)nc(C)n1Cc1ccc2oc(-c3ccccc3NS(=O)(=O)C(F)(F)F)c(Br)c2c1`, for which, at Angiotensin II receptor, the “Log Ki” value is -7.5. Further, the Activity in the data set on Rattus norvegicus [1] was 0; with Rattus norvegicus [2], -3; in the data set with Rattus norvegicus [3] it was 6.
Regarding `CCc1nc(CC(C)C)c(C(N)=O)n1Cc1ccc2oc(-c3ccccc3NS(=O)(=O)C(F)(F)F)c(Br)c2c1`, the “Log Ki” value on Angiotensin II receptor is on record as -7.7. For the same compound, the results for the Activity with Rattus norvegicus [1], with Rattus norvegicus [2] and with Rattus norvegicus [3] were -19, -8 and -4, respectively.
For `CCc1nc(C2CC2)c(C(=O)NC)n1Cc1ccc2oc(-c3ccccc3NS(=O)(=O)C(F)(F)F)c(Br)c2c1`, the “Log Ki” value on Angiotensin II receptor is listed as -9.4. Besides, the Activity in the data set with Rattus norvegicus [1] is recorded as -52; in the data set with Rattus norvegicus [2], -9; in the data set with Rattus norvegicus [3], -60.
`CCc1nc(C)c(C(=O)O)n1Cc1ccc2oc(-c3ccccc3-c3nn[nH]n3)c(Br)c2c1` showed a clearance in data set [4] of 6 mL/min/kg. In data set [5], this compound gave a half-life of 240 min. In addition, in [6], the bioavailability is 8%. The same compound returned a distribution volume (Vd) in data set [7] of 2 L/kg.
`CCCCc1nc(Cl)c(C(=O)NC)n1Cc1ccc2oc(-c3ccccc3-c3nn[nH]n3)c(Br)c2c1` displayed a clearance in data set [4] of 11 mL/min/kg. This compound also showed a half-life in data set [5] of 30 min. In data set [6], this compound showed a bioavailability of 36%. Moreover, the Vd in [7] came out at 0.3 L/kg.
As for `CCCCc1nc(Cl)c(CO)n1Cc1ccc(-c2ccccc2-c2nnn[nH]2)cc1` [LOSARTAN], the Activity in the data set on Rattus norvegicus [1] was -41; with Rattus norvegicus [2], -36; with Rattus norvegicus [3], -30.
`CCc1nc(CC)n(Cc2ccc3oc(-c4ccccc4NS(=O)(=O)C(F)(F)F)c(Br)c3c2)c1C(N)=O`: at Angiotensin II receptor, the “Log Ki” value is listed as -9.1. For the same compound, the Activity was -38 in the data set on Rattus norvegicus [1], -17 in the data set with Rattus norvegicus [2] and -35 in the data set with Rattus norvegicus [3].
With `CCc1c(-c2ccccc2NS(=O)(=O)C(F)(F)F)oc2ccc(Cn3c(CC)nc(C4CC4)c3C(N)=O)cc12`, the “Log Ki” value on Angiotensin II receptor was -8.8. The Activity in the data set with Rattus norvegicus [1] is reported as -42; in the data set on Rattus norvegicus [2], -2; with Rattus norvegicus [3], -37.
As to `CCCCc1nc(Cl)c(C(=O)NC)n1Cc1ccc2oc(-c3ccccc3NS(=O)(=O)C(F)(F)F)c(Br)c2c1`, the Activity was -45 in the data set on Rattus norvegicus [8], -40 in the data set on Rattus norvegicus [9] and 7 in the data set with Rattus norvegicus [10]. Also, the “Log Ki” value on Angiotensin II receptor is reported as -8.8.
`CCCCc1nc(Cl)c(C(=O)O)n1Cc1ccc2oc(-c3ccccc3-c3nn[nH]n3)c(Br)c2c1` [ZOLASARTAN]: in data set [4], the clearance was 6 mL/min/kg. Also, in data set [5], the half-life is 150 min. The compound further showed a bioavailability in data set [6] of 9%. In data set [7], this compound registered a Vd of 1.2 L/kg.
In turn, `CCOC(=O)c1c(C)nc(CC)n1Cc1ccc2oc(-c3ccccc3-c3nn[nH]n3)c(Br)c2c1` showed a clearance in data set [4] of approximately 100 mL/min/kg. In [5], this compound showed a half-life of 12 min. This compound also displayed a bioavailability in data set [6] of 70%. The Vd in [7] worked out at 2 L/kg.
In the case of `CCc1nc(C)c(C(=O)N(C)C)n1Cc1ccc2oc(-c3ccccc3NS(=O)(=O)C(F)(F)F)c(Br)c2c1`, the “Log Ki” value at Angiotensin II receptor is reported as -8.6. The Activity amounted to 2 with Rattus norvegicus [1], 1 in the data set on Rattus norvegicus [2] and 1 with Rattus norvegicus [3].
Regarding `CCCc1nc(Cl)c(C(=O)NCC)n1Cc1ccc2oc(-c3ccccc3NS(=O)(=O)C(F)(F)F)c(Br)c2c1`, the “Log Ki” value at Angiotensin II receptor is listed as -9. The Activity was -54 in the data set on Rattus norvegicus [1], -13 in the data set on Rattus norvegicus [2] and -40 in the data set with Rattus norvegicus [3].
In the case of `CCNC(=O)c1c(C2CC2)nc(CC)n1Cc1ccc2oc(-c3ccccc3C(=O)O)c(Br)c2c1`, the Activity in the data set with Rattus norvegicus [8] worked out at 0; with Rattus norvegicus [9], 6; in the data set on Rattus norvegicus [10], 4. The “Log Ki” value on Angiotensin II receptor is on record as -8.6.
For the compound `CCCc1nc(C)c(C(=O)NC)n1Cc1ccc2oc(-c3ccccc3NS(=O)(=O)C(F)(F)F)c(Br)c2c1`, on Angiotensin II receptor, the “Log Ki” value is -9. Also, the figures for the Activity in the data set on Rattus norvegicus [1], in the data set on Rattus norvegicus [2] and in the data set on Rattus norvegicus [3] were -50, -12 and -30, respectively.
For `CCNC(=O)c1c(Cl)nc(CC)n1Cc1ccc2oc(-c3ccccc3NS(=O)(=O)C(F)(F)F)c(Br)c2c1`, in that order: -8.7, -43, -12 and -37.
The matching figures for `CCCc1nc(C)c(C(N)=O)n1Cc1ccc2oc(-c3ccccc3NS(=O)(=O)C(F)(F)F)c(Br)c2c1`: -9.1, -37, -8 and -38.
The matching figures for `CCc1nc(Cl)c(C(=O)NC)n1Cc1ccc2oc(-c3ccccc3NS(=O)(=O)C(F)(F)F)c(Br)c2c1`: -8.6, -31, -4 and -30.
Take `CCCc1nc(Cl)c(C(N)=O)n1Cc1ccc2oc(-c3ccccc3NS(=O)(=O)C(F)(F)F)c(Br)c2c1`: the “Log Ki” value on Angiotensin II receptor is given as -8.7. For the same compound, the values for the Activity in the data set with Rattus norvegicus [1], with Rattus norvegicus [2] and with Rattus norvegicus [3] were -28, 9 and -19, respectively.
With `CCc1nc(C2CC2)c(C(=O)NCC(C)C)n1Cc1ccc2oc(-c3ccccc3NS(=O)(=O)C(F)(F)F)c(Br)c2c1`, the “Log Ki” value at Angiotensin II receptor is given as -9.9. Also, the Activity with Rattus norvegicus [1] is -70; with Rattus norvegicus [2], -47; with Rattus norvegicus [3], -63.
`CCNC(=O)c1c(C)nc(CC)n1Cc1ccc2oc(-c3ccccc3NS(=O)(=O)C(F)(F)F)c(Br)c2c1`: the “Log Ki” value at Angiotensin II receptor is recorded as -8.9. The results for the Activity in the data set with Rattus norvegicus [1], with Rattus norvegicus [2] and in the data set on Rattus norvegicus [3] were -33, 4 and -17, respectively.
For `CCc1nc(C)c(C(=O)NC)n1Cc1ccc2oc(-c3ccccc3NS(=O)(=O)C(F)(F)F)c(Br)c2c1`, in that order: -8.5, -54, -6 and -43.
`CCNC(=O)c1c(C2CC2)nc(CC)n1Cc1ccc2oc(-c3ccccc3-c3nn[nH]n3)c(Br)c2c1`: the “Log Ki” value at Angiotensin II receptor is -9.4. Further, the values for the Activity in the data set with Rattus norvegicus [1], in the data set with Rattus norvegicus [2] and with Rattus norvegicus [3] were -9, -1 and -8, respectively.
As for `CCCc1nc(Cl)c(C(=O)NC)n1Cc1ccc2oc(-c3ccccc3NS(=O)(=O)C(F)(F)F)c(Br)c2c1`, the “Log Ki” value at Angiotensin II receptor is on record as -8.9. For the same compound, the Activity in the data set on Rattus norvegicus [1] is on record as -61; with Rattus norvegicus [2] it was -19; in the data set with Rattus norvegicus [3], -67.
For `CCc1nc(C)c(C(N)=O)n1Cc1ccc2oc(-c3ccccc3NS(=O)(=O)C(F)(F)F)c(Br)c2c1`, at Angiotensin II receptor, the “Log Ki” value is reported as -8.9. In addition, the Activity with Rattus norvegicus [1] is reported as -61; in the data set on Rattus norvegicus [2], -3; in the data set on Rattus norvegicus [3], -40.
As to `CCc1nc(C2CC2)c(C(N)=O)n1Cc1ccc2oc(-c3ccccc3NS(=O)(=O)C(F)(F)F)cc2c1`, at Angiotensin II receptor, the “Log Ki” value is given as -7. The Activity in the data set on Rattus norvegicus [1] is given as -16; in the data set on Rattus norvegicus [2] it was 7; in the data set on Rattus norvegicus [3], -18.
On to `CCc1nc(Cl)c(C(N)=O)n1Cc1ccc2oc(-c3ccccc3NS(=O)(=O)C(F)(F)F)c(Br)c2c1`, for which the “Log Ki” value at Angiotensin II receptor is reported as -8.5. Further, the Activity is -55 in the data set on Rattus norvegicus [1], -12 in the data set on Rattus norvegicus [2] and -57 in the data set with Rattus norvegicus [3].
